Source: US20040057926A1, “Modulation of the immune response through the manipulation of arginine levels” (LSU Medical Center, priority 2002, published 2004)

Legend:
Jurkat cells = test: Co-culture in transwells of stimulated PM and Jurkat cells, CD3ζ expression; format: cell-based; conditions: for CD3ζ in Jurkat cells co-cultured with PM stimulated with IL-4+IL-13: NOHA 100 μM, Nor-NOHA 50 μM, L-Arg 2 mM, L-NIL 5 μg/ml, catalase 200 U/ml, L-NMMA, L-NNA, L-NAME 1 mM; for induction of CD3ζ down-regulation by excess of the substance: data not shown
Protocol: PM were cultured in 6 well plates in RPMI containing 150 μM L-Arg and stimulated with murine rIL-4 (50 U/ml) and murine rIL-13 (50 ng/ml), or murine rIFN-γ (100 U/ml) for 24 hours. Then 1×10^6 normal T-cells stimulated with anti-CD3 plus anti-CD28 or 1×10^6 Jurkat cells, were cultured in the top chamber of a transwell system having 0.4 μm pores (Falcon, Franklin lakes, N.J.). CD3ζ expression was measured in Jurkat cells or T lymphocytes at different time points. PM were detached using trypsin/EDTA and the expression of protein and RNA for CAT-2B, ASE I, ASE II and iNOS was tested by western blot and northern blot respectively. Cytoplasmic extracts from PM were used to test ASE activity. Supernatants from stimulated PM were used to measure NO production using the Griess reagent method (Molecular Probes, Eugene, Oreg.). In addition, the extra-cellular concentration of L-Arg was tested in supernatants by HPLC (Dr. Gu Yao Wu laboratory, University of Texas) as described previously. O'Quinn, P. R., D. A. Knabe, and G. Wu. 2002. Arginine catabolism in lactating porcine mammary tissue. J Anim Sci. 80:467-474.
Flow cytometry analysis was performed as previously described. Taheri, F., J. B. Ochoa, Z. Faghiri, K. Culotta, H. J. Park, M. S. Lan, A. H. Zea, and A. C. Ochoa. 2001. L-Arginine regulates the expression of the T-cell receptor zeta chain (CD3zeta) in Jurkat cells. Clin Cancer Res 7:958s-965s. Briefly, 5×10^5 Jurkat cells or T lymphocytes were washed once with Dulbecco phosphate-buffered saline 1× (D-PBS) and resuspended in 200 μL of D-PBS containing 1 μg of anti-CD3ε or isotype control. Cells were incubated for 15 min at 4° C., washed with D-PBS and resuspended in 200 μl D-PBS containing 500 μg/ml of digitonin plus 1 μg of anti-CD3ζ or 1 μg of isotypic control. Cells were incubated for 8 minutes after which they were washed and resuspended in 400 μl of D-PBS. Fluorescence acquisition and analysis were done using a Coulter-EPICS XL flow cytometer (Beckman-Coulter) with a 488 nm argon laser. The data were expressed as mean channel fluorescence intensity (MFI).

T-cells = test: Lysosome and proteasome inhibition, CD3ζ expression in T-cells; format: cell-based, human; conditions: lactacystin 2.5 μM, bafylomycin A1 1 μM
Protocol: To inhibit lysosome function 2×10^6 T-cells cultured in the presence or absence of L-arginine, were treated with 1 μM bafylomycin A1 (Calbiochem, San Diego, Calif.) or 1 μM folimycin (Calbiochem) during the course of the experiments begining at time 0 (start of the cultures), 24, 48 and 72 hours after stimulation. To inhibit proteasome activity 2.5 μM lactacystin (Calbiochem) was added to the cultures at the same time points. DMSO was used as a control vehicle in all the cases. The CD3ζ expression was tested by flow cytometry 24 hours after the addition of the inhibitors.

[1] = format: cell-based; conditions: within 24 h, trypan blue exclusion
Protocol: To further explore possible mechanisms leading to a decreased T-cell response induced by the H. pylori sonicate, various aspects of T-cell signal transduction were studied. […] The expression of the CD3ζ chain, the main signaling element of the T-cell antigen receptor, were then tested. […] Harris, P. R., et al. J. Infect. Dis. 178, pp. 1516-1520 (1998); Zhang, Q. B., et al. Gut 38, pp. 841-845 (1996). Therefore some of these H. pylori proteins were tested to determine whether they could reduce CD3ζ expression. The recombinant proteins CagA, VacA, urease A (UreA), urease B (UreB) were titrated up to 10 μg/ml, a concentration where they caused cell death within 24 h as determined by trypan blue exclusion. […] Harris, P. R., et al. J. Infect. Dis. 178, pp. 1516-1520 (1998); Pai, R., et al. Biochem. Biophys. Res. Commun. 262, pp. 245-250 (1999); Rudnicka, W., et al. J. Physiol Pharmacol. 49, pp. 111-119 (1998); Tanahashi, T., et al. Infect. Immun. 68, pp. 664-671 (2000).

For `COC(=O)[C@@H](N)CCCNC(=N)N[N+](=O)[O-]` [L-NAME, N-NO2-L-Arg-OMe], the “CD3ζ in Jurkat cells co-cultured with PM stimulated with IL-4+IL-13” value (“CD3ζ in Jurkat cells co-cultured” for short) (Jurkat cells) was “did not prevent CD3ζ decrease”.

With `CC(=N)NCCCC[C@H](N)C(=O)O` [L-NIL] the “CD3ζ in Jurkat cells co-cultured” value (Jurkat cells) was “did not prevent CD3ζ down-regulation”.

In the case of `N=C(NCCC[C@H](N)C(=O)O)N[N+](=O)[O-]` [L-NNA, N-NO2-L-Arg], the “CD3ζ in Jurkat cells co-cultured” value (Jurkat cells) is reported as “did not prevent CD3ζ decrease”.

For `NCCC[C@H](N)C(=O)O` [L-ornithine], the “induction of CD3ζ down-regulation by excess of the substance” value (Jurkat cells) was “did not induce CD3ζ down-regulation”.

With `CNC(=N)NCCC[C@H](N)C(=O)O` [NMMA, L-mono-methyl-L-Arg] the “CD3ζ in Jurkat cells co-cultured” value (Jurkat cells) was “partially prevented the CD3ζ down-regulation”.

With `CO/C1=C\C(C)=C\[C@@H](C)[C@@H](O)[C@@H](C)C/C(C)=C/C=C/[C@H](OC)[C@@H]([C@@H](C)[C@@H](O)[C@H](C)[C@@]2(O)C[C@@H](O)[C@H](C)[C@@H](C(C)C)O2)OC1=O` [bafilomicyn, bafylomycin A1] the “decrease of CD3ζ upon stimulation with proteosome or lysosome inhibitor” value (T-cells) was “failed to prevent the decrease of CD3ζ upon stimulation”.

For `CC(=O)N[C@@H](CSC(=O)[C@]1([C@@H](O)C(C)C)NC(=O)[C@H](C)[C@@H]1O)C(=O)O` [lactacystin], the “decrease of CD3ζ upon stimulation with proteosome or lysosome inhibitor” value (T-cells) was “failed to prevent the decrease of CD3ζ upon stimulation”.

In the case of `NC(N)=O` [urea], the “induction of CD3ζ down-regulation by excess of the substance” value (Jurkat cells) is reported as “did not induce CD3ζ down-regulation” and the “concentration where they caused cell death” value [1] is reported as 10000 ng/mL.

With Catalase the “CD3ζ in Jurkat cells co-cultured” value (Jurkat cells) was “did not prevent the decrease of CD3ζ”.

In the case of UreB: recombinant H. pylori urease B, the “concentration where they caused cell death” value [1] is reported as 10000 ng/mL.

B1: CagA: recombinant H. pylori protein CagA (protein, UniProt P55980 1-1186, looked up)
Cytotoxicity-associated …: MTNETIDQTRTPDQTQSQTAFDPQQFINNLQVAFIKVDNVVASFDPDQKPIVDKNDRDNRQAFDGISQLREEYSNKAIKNPTKKNQYFSDFIDKSNDLINKDNLIDVESSTKSFQKFGDQRYQIFTSWVSHQKDPSKINTRSIRNFMENIIQPPIPDDKEKAEFLKSAKQSFAGIIIGNQIRTDQKFMGVFDESLKERQEAEKNGGPTGGDWLDIFLSFIFNKKQSSDVKEAINQEPVPHVQPDIATTTTDIQGLPPEARDLLDERGNFSKFTLGDMEMLDVEGVADIDPNYKFNQLLIHNNALSSVLMGSHNGIEPEKVSLLYAGNGGFGDKHDWNATVGYKDQQGNNVATLINVHMKNGSGLVIAGGEKGINNPSFYLYKEDQLTGSQRALSQEEIRNKVDFMEFLAQNNTKLDNLSEKEKEKFQNEIEDFQKDSKAYLDALGNDRIAFVSKKDTKHSALITEFNNGDLSYTLKDYGKKADKALDREKNVTLQGSLKHDGVMFVDYSNFKYTNASKNPNKGVGATNGVSHLEAGFNKVAVFNLPDLNNLAITSFVRRNLENKLTAKGLSLQEANKLIKDFLSSNKELAGKALNFNKAVAEAKSTGNYDEVKKAQKDLEKSLRKREHLEKEVEKKLESKSGNKNKMEAKAQANSQKDEIFALINKEANRDARAIAYTQNLKGIKRELSDKLEKISKDLKDFSKSFDEFKNGKNKDFSKAEETLKALKGSVKDLGINPEWISKVENLNAALNEFKNGKNKDFSKVTQAKSDLENSVKDVIINQKVTDKVDNLNQAVSVAKAMGDFSRVEQVLADLKNFSKEQLAQQAQKNEDFNTGKNSELYQSVKNSVNKTLVGNGLSGIEATALAKNFSDIKKELNEKFKNFNNNNNGLKNSTEPIYAKVNKKKTGQVASPEEPIYTQVAKKVNAKIDRLNQIASGLGGVGQAAGFPLKRHDKVDDLSKVGLSASPEPIYATIDDLGGPFPLKRHDKVDDLSKVGRSRNQELAQKIDNLNQAVSEAKAGFFGNLEQTIDKLKDSTKKNVMNLYVESAKKVPASLSAKLDNYAINSHTRINSNIQNGAINEKATGMLTQKNPEWLKLVNDKIVAHNVGSVSLSEYDKIGFNQKNMKDYSDSFKFSTKLNNAVKDIKSGFTHFLANAFSTGYYCLARENAEHGIKNVNTKGGFQKS
For B1, the “concentration where they caused cell death” value [1] was 10000 ng/mL.
